Experimental data from ChEMBL document CHEMBL4507315 (2021).

Legend:
[1] = target: Sigma intracellular receptor 2 (Homo sapiens, UniProt Q5BJF2); details: Compound concentration 10.0 uM
[2] = target: Ephrin type-A receptor 1 (Homo sapiens) (UniProt P21709); details: Compound concentration 100.0 nM
[3] = tested on: Mast/stem cell growth factor receptor Kit (Homo sapiens), P10721 [D816H]; details: Compound concentration 100.0 nM
[4] = target: RAC-beta serine/threonine-protein kinase (Homo sapiens) (UniProt P31751); details: Compound concentration 100.0 nM
[5] = target: Serine/threonine-protein kinase Nek2 (Homo sapiens) (UniProt P51955); details: Compound concentration 100.0 nM
[6] = target: Serine/threonine-protein kinase PAK 1 (Homo sapiens) (UniProt Q13153); details: Compound concentration 100.0 nM
Serine/threonine-protein kinase PAK 1 (Homo sapiens), sequence (Q13153 whole entry): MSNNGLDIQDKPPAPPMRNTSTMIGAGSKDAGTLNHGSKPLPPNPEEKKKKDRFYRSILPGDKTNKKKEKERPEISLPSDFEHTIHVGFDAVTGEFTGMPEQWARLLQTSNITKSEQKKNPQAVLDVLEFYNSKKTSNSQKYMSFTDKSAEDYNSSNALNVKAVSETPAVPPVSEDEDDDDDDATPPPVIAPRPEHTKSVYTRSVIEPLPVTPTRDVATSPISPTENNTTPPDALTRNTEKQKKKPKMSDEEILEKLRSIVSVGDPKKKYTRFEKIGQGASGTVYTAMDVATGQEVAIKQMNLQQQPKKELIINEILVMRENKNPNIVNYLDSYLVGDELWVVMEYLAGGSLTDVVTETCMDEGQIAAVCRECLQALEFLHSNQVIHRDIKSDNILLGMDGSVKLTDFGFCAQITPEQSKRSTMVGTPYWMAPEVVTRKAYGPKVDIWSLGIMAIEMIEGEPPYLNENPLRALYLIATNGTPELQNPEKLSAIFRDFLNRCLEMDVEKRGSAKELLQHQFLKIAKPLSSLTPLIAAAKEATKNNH

[7] = tested on: Tyrosine-protein kinase ABL1 (Homo sapiens), P00519 [Y253F]; details: Compound concentration 100.0 nM
[8] = target: Microtubule-associated serine/threonine-protein kinase 1 (Homo sapiens) (UniProt Q9Y2H9); details: Compound concentration 100.0 nM
[9] = target: Macrophage colony-stimulating factor 1 receptor (Homo sapiens) (UniProt P07333); details: Compound concentration 100.0 nM
[10] = tested on: Epidermal growth factor receptor (Homo sapiens), P00533 [G719C]; details: Compound concentration 100.0 nM
[11] = target: Phosphatidylinositol 4-phosphate 5-kinase type-1 alpha (Homo sapiens) (UniProt Q99755); details: Compound concentration 100.0 nM
[12] = target: Activin receptor type-2A (Homo sapiens) (UniProt P27037); details: Compound concentration 100.0 nM
Activin receptor type-2A (Homo sapiens), sequence (P27037 whole entry): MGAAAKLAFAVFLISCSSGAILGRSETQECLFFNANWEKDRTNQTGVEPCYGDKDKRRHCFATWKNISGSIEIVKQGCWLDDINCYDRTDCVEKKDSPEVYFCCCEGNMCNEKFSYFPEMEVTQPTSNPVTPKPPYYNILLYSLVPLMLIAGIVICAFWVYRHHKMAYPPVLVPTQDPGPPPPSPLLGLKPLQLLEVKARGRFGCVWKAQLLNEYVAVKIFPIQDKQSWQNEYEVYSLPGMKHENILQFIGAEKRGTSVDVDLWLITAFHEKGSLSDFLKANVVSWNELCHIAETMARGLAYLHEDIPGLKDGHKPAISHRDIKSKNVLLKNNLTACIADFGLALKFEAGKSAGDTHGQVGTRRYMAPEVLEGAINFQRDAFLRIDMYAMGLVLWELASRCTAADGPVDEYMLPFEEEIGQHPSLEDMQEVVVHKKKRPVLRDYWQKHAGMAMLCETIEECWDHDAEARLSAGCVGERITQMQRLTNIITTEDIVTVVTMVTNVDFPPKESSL

[13] = target: Tyrosine-protein kinase Fer (Homo sapiens) (UniProt P16591); details: Compound concentration 100.0 nM
[14] = tested on: Phosphatidylinositol 4,5-bisphosphate 3-kinase catalytic subunit alpha isoform (Homo sapiens), P42336 [E545A]; details: Compound concentration 100.0 nM
[15] = target: Mitogen-activated protein kinase 12 (Homo sapiens) (UniProt P53778); details: Compound concentration 100.0 nM
Mitogen-activated protein kinase 12 (Homo sapiens), sequence (P53778 whole entry): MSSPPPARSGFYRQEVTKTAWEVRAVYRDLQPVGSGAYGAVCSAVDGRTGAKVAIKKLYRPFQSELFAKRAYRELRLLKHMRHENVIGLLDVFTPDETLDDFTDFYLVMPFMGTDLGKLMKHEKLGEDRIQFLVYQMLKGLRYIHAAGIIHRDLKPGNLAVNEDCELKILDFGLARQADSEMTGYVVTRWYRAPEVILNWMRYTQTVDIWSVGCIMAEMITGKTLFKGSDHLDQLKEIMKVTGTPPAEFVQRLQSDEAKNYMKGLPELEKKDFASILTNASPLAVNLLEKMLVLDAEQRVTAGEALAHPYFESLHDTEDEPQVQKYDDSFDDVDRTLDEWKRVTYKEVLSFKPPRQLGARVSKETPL

[16] = target: Wee1-like protein kinase 2 (Homo sapiens) (UniProt P0C1S8); details: Compound concentration 100.0 nM
[17] = target: Serine/threonine-protein kinase ULK2 (Homo sapiens) (UniProt Q8IYT8); details: Compound concentration 100.0 nM
Serine/threonine-protein kinase ULK2 (Homo sapiens), sequence (Q8IYT8 whole entry): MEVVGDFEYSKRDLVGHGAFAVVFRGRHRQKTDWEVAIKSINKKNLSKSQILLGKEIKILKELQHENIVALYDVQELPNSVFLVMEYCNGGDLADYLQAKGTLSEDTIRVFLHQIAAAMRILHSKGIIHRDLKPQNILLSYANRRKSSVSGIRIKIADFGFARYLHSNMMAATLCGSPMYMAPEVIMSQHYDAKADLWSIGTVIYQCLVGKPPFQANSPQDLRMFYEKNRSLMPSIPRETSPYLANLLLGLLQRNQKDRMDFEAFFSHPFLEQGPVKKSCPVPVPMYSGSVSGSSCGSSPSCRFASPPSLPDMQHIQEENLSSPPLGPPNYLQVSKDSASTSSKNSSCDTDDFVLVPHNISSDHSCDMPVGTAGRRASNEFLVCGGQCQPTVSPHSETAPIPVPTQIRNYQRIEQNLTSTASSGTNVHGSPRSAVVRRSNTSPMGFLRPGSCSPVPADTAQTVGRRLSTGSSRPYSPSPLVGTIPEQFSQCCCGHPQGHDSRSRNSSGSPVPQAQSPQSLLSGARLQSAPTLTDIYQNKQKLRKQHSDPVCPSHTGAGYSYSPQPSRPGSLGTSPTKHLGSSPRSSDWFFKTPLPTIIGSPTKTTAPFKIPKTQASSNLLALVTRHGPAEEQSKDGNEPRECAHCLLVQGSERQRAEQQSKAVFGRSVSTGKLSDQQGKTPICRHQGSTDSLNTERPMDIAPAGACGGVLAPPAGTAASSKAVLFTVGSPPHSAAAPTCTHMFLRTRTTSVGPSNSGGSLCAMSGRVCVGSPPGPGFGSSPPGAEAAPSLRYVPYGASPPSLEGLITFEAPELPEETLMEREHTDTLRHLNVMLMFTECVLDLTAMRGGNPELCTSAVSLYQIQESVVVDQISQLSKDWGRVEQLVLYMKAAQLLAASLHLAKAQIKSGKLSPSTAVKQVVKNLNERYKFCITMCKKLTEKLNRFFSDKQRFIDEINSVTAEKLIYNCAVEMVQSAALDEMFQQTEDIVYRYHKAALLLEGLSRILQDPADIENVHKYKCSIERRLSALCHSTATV

[18] = tested on: Epidermal growth factor receptor (Homo sapiens), P00533 [UNDEFINED MUTATION]; details: Compound concentration 100.0 nM
[19] = target: Kappa-type opioid receptor (Homo sapiens, UniProt P41145); details: Compound concentration 10.0 uM
[20] = target: BDNF/NT-3 growth factors receptor (Homo sapiens) (UniProt Q16620); details: Compound concentration 100.0 nM
[21] = target: Macrophage-stimulating protein receptor (Homo sapiens) (UniProt Q04912); details: Compound concentration 100.0 nM
Macrophage-stimulating protein receptor (Homo sapiens), sequence (Q04912 25-304 limits assumed): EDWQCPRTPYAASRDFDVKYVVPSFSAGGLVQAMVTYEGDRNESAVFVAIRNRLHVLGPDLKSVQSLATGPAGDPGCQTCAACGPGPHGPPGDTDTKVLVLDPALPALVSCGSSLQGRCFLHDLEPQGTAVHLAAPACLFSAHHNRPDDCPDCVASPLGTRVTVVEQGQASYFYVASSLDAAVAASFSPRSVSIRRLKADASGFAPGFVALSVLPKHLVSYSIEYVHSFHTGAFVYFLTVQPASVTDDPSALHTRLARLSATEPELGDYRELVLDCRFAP
Macrophage-stimulating protein receptor (Homo sapiens), sequence (Q04912 310-1400 limits assumed): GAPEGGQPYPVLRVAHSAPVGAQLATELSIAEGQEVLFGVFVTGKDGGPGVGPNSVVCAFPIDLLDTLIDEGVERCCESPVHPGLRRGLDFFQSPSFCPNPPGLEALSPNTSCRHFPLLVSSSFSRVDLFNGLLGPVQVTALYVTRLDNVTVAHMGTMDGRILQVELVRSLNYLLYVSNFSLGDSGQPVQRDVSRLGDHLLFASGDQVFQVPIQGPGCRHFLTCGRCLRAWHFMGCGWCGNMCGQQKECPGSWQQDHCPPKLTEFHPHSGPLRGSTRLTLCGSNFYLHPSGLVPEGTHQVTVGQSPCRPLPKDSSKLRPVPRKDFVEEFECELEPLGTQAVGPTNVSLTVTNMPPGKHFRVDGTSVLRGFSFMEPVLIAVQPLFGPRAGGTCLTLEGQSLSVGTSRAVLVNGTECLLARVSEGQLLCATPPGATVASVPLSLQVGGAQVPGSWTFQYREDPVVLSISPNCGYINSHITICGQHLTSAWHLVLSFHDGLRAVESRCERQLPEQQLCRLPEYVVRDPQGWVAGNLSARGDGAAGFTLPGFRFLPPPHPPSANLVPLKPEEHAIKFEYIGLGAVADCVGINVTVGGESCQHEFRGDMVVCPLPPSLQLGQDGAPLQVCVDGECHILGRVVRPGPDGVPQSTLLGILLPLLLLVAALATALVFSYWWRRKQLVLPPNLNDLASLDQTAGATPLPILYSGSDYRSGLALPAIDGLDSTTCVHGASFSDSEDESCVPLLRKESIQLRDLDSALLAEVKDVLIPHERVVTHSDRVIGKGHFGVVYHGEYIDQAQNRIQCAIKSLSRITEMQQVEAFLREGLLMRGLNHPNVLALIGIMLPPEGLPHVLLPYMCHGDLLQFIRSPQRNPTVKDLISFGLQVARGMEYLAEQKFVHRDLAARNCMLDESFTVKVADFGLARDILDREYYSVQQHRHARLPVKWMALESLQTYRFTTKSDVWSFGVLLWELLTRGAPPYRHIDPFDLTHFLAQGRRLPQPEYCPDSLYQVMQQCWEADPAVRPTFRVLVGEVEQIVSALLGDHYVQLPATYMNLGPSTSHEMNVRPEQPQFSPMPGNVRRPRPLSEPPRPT

[22] = target: MAP/microtubule affinity-regulating kinase 3 (Homo sapiens) (UniProt P27448); details: Compound concentration 100.0 nM
[23] = target: Casein kinase I isoform gamma-1 (Homo sapiens) (UniProt Q9HCP0); details: Compound concentration 100.0 nM
[24] = tested on: Serine/threonine-protein kinase B-raf (Homo sapiens), P15056 [V600E]; details: Compound concentration 100.0 nM
[25] = target: 5-hydroxytryptamine receptor 2B (Homo sapiens) (UniProt P41595); details: Compound concentration 10.0 uM
[26] = target: Serine/threonine-protein kinase TAO1 (Homo sapiens) (UniProt Q7L7X3); details: Compound concentration 100.0 nM
[27] = target: Dual specificity mitogen-activated protein kinase kinase 3 (Homo sapiens) (UniProt P46734); details: Compound concentration 100.0 nM
[28] = target: Ribosomal protein S6 kinase alpha-6 (Homo sapiens) (UniProt Q9UK32); details: Compound concentration 100.0 nM
[29] = target: Transient receptor potential cation channel subfamily M member 6 (Homo sapiens) (UniProt Q9BX84); details: Compound concentration 100.0 nM
[30] = tested on: Epidermal growth factor receptor (Homo sapiens), P00533 [UNDEFINED MUTATION]; details: Compound concentration 100.0 nM; remark: listed apart in the source
[31] = target: LIM domain kinase 1 (Homo sapiens) (UniProt P53667); details: Compound concentration 100.0 nM
LIM domain kinase 1 (Homo sapiens), sequence (P53667 whole entry, looked up, the tested form may be a part): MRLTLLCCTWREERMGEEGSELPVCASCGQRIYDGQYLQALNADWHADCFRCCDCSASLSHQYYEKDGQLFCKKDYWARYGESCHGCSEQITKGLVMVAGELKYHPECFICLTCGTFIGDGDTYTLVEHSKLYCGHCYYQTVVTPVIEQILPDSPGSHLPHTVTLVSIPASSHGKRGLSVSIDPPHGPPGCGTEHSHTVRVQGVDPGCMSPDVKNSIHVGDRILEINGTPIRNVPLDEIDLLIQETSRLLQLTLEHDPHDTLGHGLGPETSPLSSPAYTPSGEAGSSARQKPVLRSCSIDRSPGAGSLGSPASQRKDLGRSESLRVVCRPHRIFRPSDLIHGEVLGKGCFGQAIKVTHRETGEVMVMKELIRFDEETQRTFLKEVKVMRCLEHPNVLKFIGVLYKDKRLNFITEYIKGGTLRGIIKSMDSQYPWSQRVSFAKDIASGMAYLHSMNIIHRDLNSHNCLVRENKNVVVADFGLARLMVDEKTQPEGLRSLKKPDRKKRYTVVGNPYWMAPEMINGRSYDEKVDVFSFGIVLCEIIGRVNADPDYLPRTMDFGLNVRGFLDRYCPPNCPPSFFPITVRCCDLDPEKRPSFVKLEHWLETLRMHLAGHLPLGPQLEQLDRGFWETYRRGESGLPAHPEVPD

[32] = tested on: Tyrosine-protein kinase ABL1 (Homo sapiens), P00519 [F317I]; details: Compound concentration 100.0 nM
[33] = tested on: Receptor-type tyrosine-protein kinase FLT3 (Homo sapiens), P36888 [UNDEFINED MUTATION]; details: Compound concentration 100.0 nM
[34] = target: Muscarinic acetylcholine receptor M4 (Homo sapiens) (UniProt P08173); details: Compound concentration 10.0 uM
[35] = target: Dual specificity mitogen-activated protein kinase kinase 7 (Homo sapiens) (UniProt O14733); details: Compound concentration 100.0 nM
[36] = target: Alpha-2A adrenergic receptor (Homo sapiens) (UniProt P08913); details: Compound concentration 10.0 uM
[37] = target: Calcium/calmodulin-dependent protein kinase type 1 (Homo sapiens) (UniProt Q14012); details: Compound concentration 100.0 nM
[38] = target: 5-hydroxytryptamine receptor 5A (Homo sapiens) (UniProt P47898); details: Compound concentration 10.0 uM
5-hydroxytryptamine receptor 5A (Homo sapiens), sequence (P47898 whole entry): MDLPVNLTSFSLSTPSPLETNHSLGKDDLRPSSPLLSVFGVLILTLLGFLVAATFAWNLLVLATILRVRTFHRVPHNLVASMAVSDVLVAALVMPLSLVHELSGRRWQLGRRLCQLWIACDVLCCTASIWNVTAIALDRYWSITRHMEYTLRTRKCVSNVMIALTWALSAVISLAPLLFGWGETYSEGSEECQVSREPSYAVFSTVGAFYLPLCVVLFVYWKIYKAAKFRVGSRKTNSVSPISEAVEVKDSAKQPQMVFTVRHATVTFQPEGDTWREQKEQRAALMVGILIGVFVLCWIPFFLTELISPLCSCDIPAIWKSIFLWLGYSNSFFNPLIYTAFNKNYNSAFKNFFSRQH

[39] = target: Proto-oncogene tyrosine-protein kinase Src (Homo sapiens) (UniProt P12931); details: Compound concentration 100.0 nM
[40] = tested on: Tyrosine-protein kinase ABL1 (Homo sapiens), P00519 [T315I]; details: Compound concentration 100.0 nM
[41] = target: Cyclin-dependent kinase 17 (Homo sapiens) (UniProt Q00537); details: Compound concentration 100.0 nM
[42] = target: Focal adhesion kinase 1 (Homo sapiens) (UniProt Q05397); details: Compound concentration 100.0 nM
[43] = target: Homeodomain-interacting protein kinase 1 (Homo sapiens) (UniProt Q86Z02); details: Compound concentration 100.0 nM
[44] = target: Receptor-type tyrosine-protein kinase FLT3 (Homo sapiens) (UniProt P36888); details: Compound concentration 100.0 nM
[45] = target: Dual specificity protein kinase CLK3 (Homo sapiens) (UniProt P49761); details: Compound concentration 100.0 nM

Sigma intracellular receptor 2, sequence (Q5BJF2 whole entry): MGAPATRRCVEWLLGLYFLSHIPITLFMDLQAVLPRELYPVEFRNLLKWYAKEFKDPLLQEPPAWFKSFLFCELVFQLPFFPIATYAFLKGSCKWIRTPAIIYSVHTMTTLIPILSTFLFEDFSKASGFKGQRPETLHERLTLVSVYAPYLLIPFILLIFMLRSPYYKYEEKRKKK

Question: What does the source list for `O=C(NCCCC1CCCCC1)c1ccc(CNC(=O)c2cnn(-c3ccccc3)c2C(F)(F)F)cc1` [SR-321]?
Answer: inhibition [1]: 54.8%; residual activity [2]: 100%; residual activity [3]: 78%; residual activity [4]: 100%; residual activity [5]: 100%; residual activity [6]: 92%; residual activity [7]: 98%; residual activity [8]: 88%; residual activity [9]: 100%; residual activity [10]: 96%; residual activity [11]: 100%; residual activity [12]: 83%; residual activity [13]: 98%; residual activity [14]: 100%; residual activity [15]: 100%; residual activity [16]: 100%; residual activity [17]: 100%; residual activity [18]: 100%; inhibition [19]: 80.2%; residual activity [20]: 100%; residual activity [21]: 100%; residual activity [22]: 94%; residual activity [23]: 100%; residual activity [24]: 100%; inhibition [25]: 3.69%; residual activity [26]: 96%; residual activity [27]: 100%; residual activity [28]: 100%; residual activity [29]: 94%; residual activity [30]: 99%; residual activity [31]: 100%; residual activity [32]: 100%; residual activity [33]: 100%; inhibition [34]: 20.1%; residual activity [35]: 100%; inhibition [36]: -2.46%; residual activity [37]: 100%; inhibition [38]: 17%; residual activity [39]: 100%; residual activity [40]: 100%; residual activity [41]: 100%; residual activity [42]: 100%; residual activity [43]: 99%; residual activity [44]: 100%; residual activity [45]: 100%

Question: Which inhibition [1] does the source give for `Nc1c(C(=O)NCc2ccc(C(=O)NCCCC3CCCCC3)cc2)cnn1-c1ccccc1` [SR-318] here?
Answer: The inhibition was 45.3%.

Question: And the residual activity [2]?
Answer: The residual activity was 100%.

Question: What about the residual activity [3] of the same compound?
Answer: The residual activity was 61%.

Question: And the residual activity [4]?
Answer: Its residual activity is 96%.

Question: And the residual activity [5]?
Answer: The residual activity was 100%.

Question: And the residual activity [6]?
Answer: Its residual activity is 100%.

Question: And the residual activity [7]?
Answer: The residual activity was 100%.

Question: What about the residual activity [8] of the same compound?
Answer: The residual activity was 100%.

Question: What about the residual activity [9] of the same compound?
Answer: The residual activity was 100%.

Question: And the residual activity [10]?
Answer: The residual activity was 85%.

Question: And the residual activity [11]?
Answer: Its residual activity is 100%.

Question: What about the residual activity [12] of the same compound?
Answer: Its residual activity is 100%.

Question: What about the residual activity [13] of the same compound?
Answer: Its residual activity is 90%.

Question: What about the residual activity [14] of the same compound?
Answer: Its residual activity is 100%.

Question: And the residual activity [15]?
Answer: Its residual activity is 100%.

Question: And the residual activity [16]?
Answer: Its residual activity is 100%.

Question: What about the residual activity [17] of the same compound?
Answer: The residual activity was 100%.

Question: What about the residual activity [18] of the same compound?
Answer: The residual activity was 100%.

Question: What about the inhibition [19] of the same compound?
Answer: The inhibition was 38.6%.

Question: And the residual activity [20]?
Answer: Its residual activity is 85%.

Question: And the residual activity [21]?
Answer: Its residual activity is 100%.

Question: And the residual activity [22]?
Answer: The residual activity was 78%.

Question: And the residual activity [23]?
Answer: The residual activity was 100%.

Question: What about the residual activity [24] of the same compound?
Answer: The residual activity was 100%.

Question: And the inhibition [25]?
Answer: The inhibition was 19.9%.

Question: And the residual activity [26]?
Answer: The residual activity was 91%.

Question: And the residual activity [27]?
Answer: Its residual activity is 85%.

Question: What about the residual activity [28] of the same compound?
Answer: Its residual activity is 100%.

Question: And the residual activity [29]?
Answer: The residual activity was 100%.

Question: What about the residual activity [30] of the same compound?
Answer: Its residual activity is 100%.

Question: And the residual activity [31]?
Answer: The residual activity was 100%.

Question: And the residual activity [32]?
Answer: Its residual activity is 100%.

Question: What about the residual activity [33] of the same compound?
Answer: Its residual activity is 73%.

Question: What about the inhibition [34] of the same compound?
Answer: The inhibition was -4.14%.

Question: And the residual activity [35]?
Answer: Its residual activity is 99%.

Question: What about the inhibition [36] of the same compound?
Answer: Its inhibition is 4.08%.

Question: What about the residual activity [37] of the same compound?
Answer: The residual activity was 100%.

Question: What about the inhibition [38] of the same compound?
Answer: The inhibition was 9.6%.

Question: And the residual activity [39]?
Answer: The residual activity was 100%.

Question: What about the residual activity [40] of the same compound?
Answer: The residual activity was 100%.

Question: And the residual activity [41]?
Answer: The residual activity was 78%.

Question: What about the residual activity [42] of the same compound?
Answer: The residual activity was 99%.

Question: And the residual activity [43]?
Answer: The residual activity was 100%.

Question: And the residual activity [44]?
Answer: Its residual activity is 100%.

Question: What about the residual activity [45] of the same compound?
Answer: Its residual activity is 95%.
